This note sets out measurements from patent US6770799B2, “Expression of recombinant human acetylcholinesterase in transgenic plants” (priority 2000, dated 2004).

Data set [1] addresses T1, plant derived recombinant AChE (rAChE) (Homo sapiens, UniProt P22303).
T1 construct: We expressed the engineered AChE-E4 form, encoded by exons 2-4 of the human gene; made in house; host or cells: transgenic tomato (Lycopersicum esculentum cv. Micro-Tom), cleared leaf extracts
Description: Inhibition of plant-derived recombinant AChE (Ellman assay). Conditions: for inhibition of plant derived rAChE: 1 mM acetylthiocholine. The data set is classed as biochemical. For orientation: Ellman's reagent forms a yellow product with free thiols.

The target in data set [2] is T2, human AChE derived from erythrocytes (Homo sapiens, UniProt P22303).
T2 construct: a commercially available preparation of AChE from human erythrocytes; purchased; host or cells: human erythrocytes
T2 sequence (P22303 32-617 isoform P22303-2 limits assumed): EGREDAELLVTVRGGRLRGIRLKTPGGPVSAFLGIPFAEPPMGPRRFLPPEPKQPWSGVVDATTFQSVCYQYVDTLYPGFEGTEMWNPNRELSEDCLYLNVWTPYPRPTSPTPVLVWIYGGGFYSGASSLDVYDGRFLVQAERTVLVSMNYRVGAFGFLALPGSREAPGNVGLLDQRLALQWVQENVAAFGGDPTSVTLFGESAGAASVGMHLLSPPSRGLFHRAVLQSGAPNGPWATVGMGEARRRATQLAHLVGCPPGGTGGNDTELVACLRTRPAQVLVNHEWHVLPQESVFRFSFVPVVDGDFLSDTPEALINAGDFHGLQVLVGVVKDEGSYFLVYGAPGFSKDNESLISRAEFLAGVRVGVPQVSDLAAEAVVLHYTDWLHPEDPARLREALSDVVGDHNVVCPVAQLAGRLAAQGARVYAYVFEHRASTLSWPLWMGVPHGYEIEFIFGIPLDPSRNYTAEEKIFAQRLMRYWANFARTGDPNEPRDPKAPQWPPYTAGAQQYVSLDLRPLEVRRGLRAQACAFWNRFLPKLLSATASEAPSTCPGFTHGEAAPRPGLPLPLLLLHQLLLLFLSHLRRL
Put plainly: Inhibition of AChE from human erythrocytes (Ellman assay). It is filed as biochemical.

Data set [3] in a line: Heat and storage stability of AChE activity in crude leaf extracts. It is filed as physicochemical. How it is done: To evaluate the heat stability of the enzyme, plant extracts were incubated for 30 minutes at the indicated temperatures and then assayed as described above. Stability of the enzymatic activity was determined at 4 degrees C. and at 25 degrees C. by incubating plant extracts at the respective temperatures and assaying samples at the indicated time points.
The plant-derived hAChE in total soluble protein extracts retained 50% of its initial activity after incubation at 42 degrees for at least 30 minutes (FIG. 5A). Crude leaf extracts were incubated at the indicated temperatures for 30 minutes and then subjected to Ellman's AChE assay. […] The activity was very stable at 4 degrees C., with only 20% loss after 24 hours (FIG. 5B). Crude leaf extracts were incubated at 4 degrees C. or at 25 degrees C. for the indicated time periods and then assayed for AChE activity.

Data set [4] is described as follows: Km determination of plant-derived hAChE (Ellman assay, Lineweaver-Burk analysis). It is filed as biochemical. The conditions noted are these: acetylthiocholine 0.05-50 mM; four expressing lines.
Description: Scaled-down microtiter plate Ellman assays were performed, according to standard methods, which are well known in the art. […] At the end of the 30 minute incubation period, 100 μl of 1 mM 5-5′-dithio-bis(2-nitrobenzoate) (Ellman's reagent) and 2 mM acetylthiocholine in assay buffer was added. Hydrolysis was monitored by measuring optical density at 405 nm at 5 minute intervals for 30 minutes, using a microtiter plate spectrophotometer, plotted against time, and initial rates were calculated from the slope of the linear portion of the graph. Net hydrolysis rates were calculated by subtracting the rates measured in the presence of BW284c15 from those obtained in its absence. To determine the Km, the concentration of the acetylthiocholine substrate in the Ellman's reagent was varied in the range of 0.05-50 mM.

On to `CCOP(=O)(OCC)Oc1ccc([N+](=O)[O-])cc1` [paraoxon, diethyl p-nitrophenyl phosphate], for which, in data set [1], the “susceptibility of plant-derived E4 enzyme relative to equivalent recombinant enzyme from transgenic mice” value is “somewhat less susceptible” and the “inhibition of plant derived rAChE” value was “can inhibit”.
On to `CC(C)NP(=O)(NC(C)C)OP(=O)(NC(C)C)NC(C)C` [Iso-OMPA, tetraisopropyl pyrophosphoramide], for which the “inhibition of erythrocyte-derived enzyme” value in data set [2] (at 10 mM) was “only partial inhibition”. Moreover, the “effect on erythrocyte-derived enzyme” value in data set [2] (up to 100 μM) is “no effect”. The “inhibition of plant-derived enzyme” value in data set [1] (at 10 mM) is “only partial inhibition”. Besides, in data set [1] (up to 100 μM), the “effect on plant-derived enzyme” value is listed as “no effect”.
With `CN(C)C(=O)Oc1cccc([N+](C)(C)C)c1` [neostigmine], the “inhibition of plant derived rAChE” value in data set [1] was “can inhibit”.
Regarding `O=S(=O)(F)Cc1ccccc1` [PMSF, phehylmethylsulfonyl fluoride], the “inhibition of plant derived rAChE” value in data set [1] is given as “can inhibit”.

B1: plant-derived hAChE (protein, UniProt P22303 32-614, looked up)
Acetylcholinesterase: EGREDAELLVTVRGGRLRGIRLKTPGGPVSAFLGIPFAEPPMGPRRFLPPEPKQPWSGVVDATTFQSVCYQYVDTLYPGFEGTEMWNPNRELSEDCLYLNVWTPYPRPTSPTPVLVWIYGGGFYSGASSLDVYDGRFLVQAERTVLVSMNYRVGAFGFLALPGSREAPGNVGLLDQRLALQWVQENVAAFGGDPTSVTLFGESAGAASVGMHLLSPPSRGLFHRAVLQSGAPNGPWATVGMGEARRRATQLAHLVGCPPGGTGGNDTELVACLRTRPAQVLVNHEWHVLPQESVFRFSFVPVVDGDFLSDTPEALINAGDFHGLQVLVGVVKDEGSYFLVYGAPGFSKDNESLISRAEFLAGVRVGVPQVSDLAAEAVVLHYTDWLHPEDPARLREALSDVVGDHNVVCPVAQLAGRLAAQGARVYAYVFEHRASTLSWPLWMGVPHGYEIEFIFGIPLDPSRNYTAEEKIFAQRLMRYWANFARTGDPNEPRDPKAPQWPPYTAGAQQYVSLDLRPLEVRRGLRAQACAFWNRFLPKLLSATDTLDEAERQWKAEFHRWSSYMVHWKNQFDHYSKQDRCSDL
modifications: plant-expressed
On to B1, for which the “loss of AChE activity” value in data set [3] (4 degrees C., after 24 hours) is 20%. In addition, the initial activity retained in data set [3] (42 degrees, at least 30 minutes, total soluble protein extract) is 50%. Moreover, the “residual AChE activity” value in data set [3] (room temperature (~25 degrees C.), after 25 hours) came to 20%. For the same molecule, in data set [4], the Michaelis-Menten constant (Km) was 440 ± 100 µM.

The Km is the substrate concentration at which the rate is half of its maximum.
